# Measured values as given in patent publication US9346795B2, “Substituted sulfonamides useful as antiapoptotic Bcl inhibitors” (Bristol-Myers Squibb Company, priority 2011, dated 2016).
# Legend:
# [1] = target: Bcl-xL (Homo sapiens (Human), UniProt Q07817); test: Bcl-xL/Bim Fluorescence Resonance Energy Transfer Assay (FRET); format: binding
# Method: Bcl-xL/Bim Fluorescence Resonance Energy Transfer Assay (FRET) The assays were performed in black flat-bottom 384-well plates. The final assay volume was 55 μl prepared from additions of Biotin-Bcl-xL (Bcl-xL: GENBANK® Accession No. […] The reaction was incubated at room temperature for 60 minutes. After 60 minutes, 5 μL of Streptavidin-Terbium FRET detection reagent (Perkin Elmer) was added to the reaction mixture and incubated at room temperature in the dark for 30 mins. […] Compounds were dissolved at 10 mM in dimethylsulfoxide (DMSO) and evaluated at eleven concentrations. IC50 values were derived by non-linear regression analysis.
# [2] = target: Bcl-2 (Homo sapiens (Human), UniProt P10415); test: Bcl-2/Bim Fluorescence Polarization Assay (FPA); format: binding
# Bcl-2, sequence (P10415 whole entry): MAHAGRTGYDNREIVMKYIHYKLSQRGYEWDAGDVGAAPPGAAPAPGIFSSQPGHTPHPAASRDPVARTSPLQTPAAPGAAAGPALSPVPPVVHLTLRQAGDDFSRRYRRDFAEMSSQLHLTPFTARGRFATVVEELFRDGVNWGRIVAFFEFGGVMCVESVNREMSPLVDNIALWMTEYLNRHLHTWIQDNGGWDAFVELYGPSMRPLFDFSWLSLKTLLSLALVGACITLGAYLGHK
# Method: Bcl-2/Bim Fluorescence Polarization Assay (FPA)
# The assays were performed in black flat-bottom 384-well plates. […] The reaction was incubated at room temperature for 60 minutes and fluorescence polarization of the reaction was detected on the LJL Plate Reader. Inhibition data were calculated from mP values generated by the no protein control reactions for 100% inhibition and vehicle-only reactions for 0% inhibition. The final concentrations of reagents in the assay were 4.9 nM BCL-2, 5 nM fluoresceinated 18-mer BIM peptide and 1% DMSO. […] Compounds were dissolved at 10 mM in dimethylsulfoxide (DMSO) and evaluated at eleven concentrations. IC50 values were derived by non-linear regression analysis.
# Bcl-xL, sequence (Q07817 whole entry): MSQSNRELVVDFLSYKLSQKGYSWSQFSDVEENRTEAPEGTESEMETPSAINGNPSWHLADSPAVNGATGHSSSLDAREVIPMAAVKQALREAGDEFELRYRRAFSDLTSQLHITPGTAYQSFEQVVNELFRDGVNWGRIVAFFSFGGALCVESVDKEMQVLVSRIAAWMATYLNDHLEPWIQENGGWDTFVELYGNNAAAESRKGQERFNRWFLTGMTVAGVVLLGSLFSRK
Structure (SMILES),IC50 [1] [nM],IC50 [2] [nM]
"CCCCN(CCCC)C(=O)c1nn(-c2ccc(C(=O)NS(=O)(=O)c3ccc4c(c3)CCN4C(=O)Cc3ccc(Cl)c(Cl)c3)cc2C(=O)N2CCc3ccccc3C2)c(C)c1Cl [Example 64, N,N-dibutyl-4-chloro-1-(4-(1-(2-(3,4-dichlorophenyl)acetyl)indolin-5-ylsulfonylcarbamoyl)-2-(1,2,3,4-tetrahydroisoquinoline-2-carbonyl)phenyl)-5-methyl-1H-pyrazole-3-carboxamide]",2450,200
"CCCCN(CCCC)c1nn(-c2ccc(C(=O)NS(=O)(=O)c3ccc4ccccc4c3)cc2C(=O)N2CCc3ccccc3C2)c(C)c1Cl [Example 191, 4-(4-Chloro-3-(dibutylamino)-5-methyl-1H-pyrazol-1-yl)-N-(naphthalen-2-ylsulfonyl)-3-(1,2,3,4-tetrahydroisoquinoline-2-carbonyl)benzamide]",690,260
"CCCCN(CCCC)C(=O)c1nn(-c2ccc(C(=O)NS(=O)(=O)c3ccc4c(c3)c(Cl)cn4CC)cc2C(=O)N2CCc3ccccc3C2)c(C)c1Cl [Example 83, N,N-dibutyl-4-chloro-1-(4-(3-chloro-1-ethyl-1H-indol-5-ylsulfonylcarbamoyl)-2-(1,2,3,4-tetrahydroisoquinoline-2-carbonyl)phenyl)-5-methyl-1H-pyrazole-3-carboxamide]",40,20
"CCCCN(CCCC)c1ncc(Cl)c(-c2ccc(C(=O)NS(=O)(=O)c3ccc4ccccc4c3)cc2C(=O)N2Cc3ccccc3C[C@H]2CO)n1 [Example 315, 4-(5-Chloro-2-(dibutylamino)pyrimidin-4-yl)-3-((S)-3-(hydroxymethyl)-1,2,3,4-tetrahydroisoquinoline-2-carbonyl)-N-(naphthalen-2-ylsulfonyl)benzamide]",80,60
"CCCCN(CCCC)C(=O)c1nn(-c2ccc(C(=O)NS(=O)(=O)c3cc(Br)c4c(c3)c(Br)cn4CC)cc2C(=O)N2CCc3ccccc3C2)c(C)c1Cl [Example 85, N,N-dibutyl-4-chloro-1-(4-(3,7-dibromo-1-ethyl-1H-indol-5-ylsulfonylcarbamoyl)-2-(1,2,3,4-tetrahydroisoquinoline-2-carbonyl)phenyl)-5-methyl-1H-pyrazole-3-carboxamide]",20,4.19
"CCCCN(CCCC)C(=O)c1nn(-c2ccc(C(=O)NS(=O)(=O)c3ccc4ccc(OCCCN5CCCC5)cc4c3)cc2C(=O)N2CCc3ccccc3C2)c(C)c1Cl [Example 40, N,N-dibutyl-4-chloro-5-methyl-1-(4-(7-(3-(pyrrolidin-1-yl)propoxy)naphthalen-2-ylsulfonylcarbamoyl)-2-(1,2,3,4-tetrahydroisoquinoline-2-carbonyl)phenyl)-1H-pyrazole-3-carboxamide]",30,3780
"CCCCN(CCCC)C(=O)c1nn(-c2ccc(C(=O)NS(=O)(=O)c3ccc4cccc(C#N)c4c3)cc2C(=O)N2CCc3ccccc3C2)c(C)c1Cl [Example 8, N,N-dibutyl-4-chloro-1-(4-(8-cyanonaphthalen-2-ylsulfonylcarbamoyl)-2-(1,2,3,4-tetrahydroisoquinoline-2-carbonyl)phenyl)-5-methyl-1H-pyrazole-3-carboxamide]",20,920
"CCCCc1c(-c2ccc(C(=O)NS(=O)(=O)c3ccc4ccccc4c3)cc2C(=O)N2CCc3ccccc3C2)c(CO)nn1-c1ccc(Oc2ccc(Cl)cc2)cc1 [Example 242, 4-(5-butyl-1-(4-(4-chlorophenoxy)phenyl)-3-(hydroxymethyl)-1H-pyrazol-4-yl)-N-(naphthalen-2-ylsulfonyl)-3-(1,2,3,4-tetrahydroisoquinoline-2-carbonyl)benzamide]",40,20
"CCCCN(C(=O)c1nn(-c2ccc(C(=O)NS(=O)(=O)c3ccc4c(Cl)ccc(Cl)c4c3)cc2C(=O)N2CCc3ccccc3C2)c(C)c1Cl)c1cccc(-c2ccc(Cl)cc2)c1 [Example 221, N-butyl-4-chloro-N-(4′-chlorobiphenyl-3-yl)-1-(4-(5,8-dichloronaphthalen-2-ylsulfonylcarbamoyl)-2-(1,2,3,4-tetrahydroisoquinoline-2-carbonyl)phenyl)-5-methyl-1H-pyrazole-3-carboxamide]",40,40
"CCCCN(CCCC)C(=O)c1nn(-c2ccc(C(=O)NS(=O)(=O)c3ccc4ccccc4c3)cc2C(=O)N2CCc3ccccc3C2)c(C)c1Cl [Example 1, N,N-Dibutyl-4-chloro-5-methyl-1-(4-(naphthalen-2-ylsulfonylcarbamoyl)-2-(1,2,3,4-tetrahydroisoquinoline-2-carbonyl)phenyl)-1H-pyrazole-3-carboxamide]",20,30
"CCCCc1c(-c2ccc(C(=O)NS(=O)(=O)c3ccc4cccc(Cl)c4c3)cc2C(=O)N2CCc3ccccc3C2)c(CO)nn1-c1ccc(Oc2cccc(Cl)c2)cc1 [Example 252, 4-(5-butyl-1-(4-(3-chlorophenoxy)phenyl)-3-(hydroxymethyl)-1H-pyrazol-4-yl)-N-(8-chloronaphthalen-2-ylsulfonyl)-3-(1,2,3,4-tetrahydroisoquinoline-2-carbonyl)benzamide]",10,6.37
"CCCCN(CCCC)C(=O)c1nn(-c2ccc(C(=O)NS(=O)(=O)c3ccc4ccccc4c3)cc2C(=O)N2Cc3ccccc3C[C@H]2COCCO)c(C)c1Cl [Example 119, N,N-Dibutyl-4-chloro-1-(2-((S)-3-((2-hydroxyethoxy)methyl)-1,2,3,4-tetrahydroisoquinoline-2-carbonyl)-4-(naphthalen-2-ylsulfonylcarbamoyl)phenyl)-5-methyl-1H-pyrazole-3-carboxamide]",10,50
"CCCCN(Cc1ccc(Cl)c(Cl)c1)C(=O)c1nn(-c2ccc(C(=O)NS(=O)(=O)c3ccc4cccc(Cl)c4c3)cc2C(=O)N2Cc3ccccc3C[C@H]2CO)c(C)c1Cl [Example 181, N-Butyl-4-chloro-1-(4-(8-chloronaphthalen-2-ylsulfonylcarbamoyl)-2-((S)-3-(hydroxymethyl)-1,2,3,4-tetrahydroisoquinoline-2-carbonyl)phenyl)-N-(3,4-dichlorobenzyl)-5-methyl-1H-pyrazole-3-carboxamide]",50,8.49
"CCCCN(CCCC)C(=O)c1nn(-c2ccc(C(=O)NS(=O)(=O)c3ccc4ccc(OC(C)C)cc4c3)cc2C(=O)N2CCc3ccccc3C2)c(C)c1Cl [Example 24, N,N-dibutyl-4-chloro-1-(4-(7-isopropoxynaphthalen-2-ylsulfonylcarbamoyl)-2-(1,2,3,4-tetrahydroisoquinoline-2-carbonyl)phenyl)-5-methyl-1H-pyrazole-3-carboxamide]",20,50
"CCCCN(Cc1ccc(Cl)c(Cl)c1)C(=O)c1nn(-c2ccc(C(=O)NS(=O)(=O)c3ccc4ccc(I)cc4c3)cc2C(=O)N2CCc3ccccc3C2)c(C)c1Cl [Example 179, N-Butyl-4-chloro-N-(3,4-dichlorobenzyl)-1-(4-(7-iodonaphthalen-2-ylsulfonylcarbamoyl)-2-(1,2,3,4-tetrahydroisoquinoline-2-carbonyl)phenyl)-5-methyl-1H-pyrazole-3-carboxamide]",80,20
"CCCN(CCC)c1nn(-c2ccc(C(=O)NS(=O)(=O)c3ccc4c(Cl)ccc(Br)c4c3)cc2C(=O)N2Cc3ccccc3C[C@H]2CO)c(C)c1Cl [Example 207, N-(8-bromo-5-chloronaphthalen-2-ylsulfonyl)-4-(4-chloro-3-(dipropylamino)-5-methyl-1H-pyrazol-1-yl)-3-((S)-3-(hydroxymethyl)-1,2,3,4-tetrahydroisoquinoline-2-carbonyl)benzamide]",40,7.84
"CCCN(CCC)c1nn(-c2ccc(C(=O)NS(=O)(=O)c3ccc4ccccc4c3)cc2C(=O)N2Cc3ccccc3C[C@H]2CO)c(C)c1Cl [Example 192, 4-(4-Chloro-3-(dipropylamino)-5-methyl-1H-pyrazol-1-yl)-3-((S)-3-(hydroxymethyl)-1,2,3,4-tetrahydroisoquinoline-2-carbonyl)-N-(naphthalen-2-ylsulfonyl)benzamide]",30,60
"CCCCN(CCCC)C(=O)c1nn(-c2ccc(C(=O)NS(=O)(=O)c3ccc4c(c3)CCN4Cc3ccc(Cl)c(Cl)c3)cc2C(=O)N2Cc3ccccc3C[C@H]2CO)c(C)c1Cl [Example 189, N,N-Dibutyl-4-chloro-1-(4-(1-(3,4-dichlorobenzyl)indolin-5-ylsulfonylcarbamoyl)-2-((S)-3-(hydroxymethyl)-1,2,3,4-tetrahydroisoquinoline-2-carbonyl)phenyl)-5-methyl-1H-pyrazole-3-carboxamide]",40,10
"CCCCN(CCCC)C(=O)c1nn(-c2ccc(C(=O)NS(=O)(=O)c3ccc4c(Cl)ccc(Cl)c4c3)cc2C(=O)N2CCc3ccccc3C2)c(C)c1Cl [Example 44, N,N-dibutyl-4-chloro-1-(4-(5,8-dichloronaphthalen-2-ylsulfonylcarbamoyl)-2-(1,2,3,4-tetrahydroisoquinoline-2-carbonyl)phenyl)-5-methyl-1H-pyrazole-3-carboxamide]",30,7.25
